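Exposure lasted 48 hours, with cells grown in 96-well plates and compounds tested at five concentrations. At the GI50, growth is halved.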 Active and inactive are the calls of the source. Cut-off read from the data, not from the text of the source: active = GI50 up to about 1.1 µM and inactive = higher.
What was measured:
Assay in all cases: NCI-60 cell line screen, 48 h
786-0 = tested on: 786-0
A498 = tested on: A498
A549 = tested on: A549
ACHN = tested on: ACHN
BT-549 = tested on: BT-549
CAKI-1 = tested on: CAKI-1
CCRF-CEM = tested on: CCRF-CEM
COLO 205 = tested on: COLO 205
DU-145 = tested on: DU-145
EKVX = tested on: EKVX
HCC 2998 = tested on: HCC 2998
HCT-116 = tested on: HCT-116
HCT-15 = tested on: HCT-15
HL-60 = tested on: HL-60
HOP-62 = tested on: HOP-62
HOP-92 = tested on: HOP-92
HT-29 = tested on: HT-29
Hs-578T = tested on: Hs-578T
IGROV-1 = tested on: IGROV-1
K562 = tested on: K562
KM12 = tested on: KM12
LOX IMVI = tested on: LOX IMVI
M14 = tested on: M14
MCF7 = tested on: MCF7
MDA-MB-231 = tested on: MDA-MB-231
MDA-MB-435 = tested on: MDA-MB-435
MDA-N = tested on: MDA-N
MOLT-4 = tested on: MOLT-4
Malme-3M = tested on: Malme-3M
NCI-H226 = tested on: NCI-H226
NCI-H23 = tested on: NCI-H23
NCI-H460 = tested on: NCI-H460
NCI-H522 = tested on: NCI-H522
NCI/ADR-RES = tested on: NCI/ADR-RES
OVCAR-3 = tested on: OVCAR-3
OVCAR-4 = tested on: OVCAR-4
OVCAR-5 = tested on: OVCAR-5
OVCAR-8 = tested on: OVCAR-8
PC-3 = tested on: PC-3
RPMI-8226 = tested on: RPMI-8226
RXF 393 = tested on: RXF 393
SF-268 = tested on: SF-268
SF-295 = tested on: SF-295
SF-539 = tested on: SF-539
SK-MEL-28 = tested on: SK-MEL-28
SK-MEL-2 = tested on: SK-MEL-2
SK-MEL-5 = tested on: SK-MEL-5
SK-OV-3 = tested on: SK-OV-3
SN12C = tested on: SN12C
SNB-19 = tested on: SNB-19
SNB-75 = tested on: SNB-75
SR = tested on: SR
SW-620 = tested on: SW-620
T47D = tested on: T47D
TK-10 = tested on: TK-10
U-251 = tested on: U-251
UACC-257 = tested on: UACC-257
UACC-62 = tested on: UACC-62
UO-31 = tested on: UO-31

ClCCCCCc1c2nc(c(CCCCCCl)c3ccc([nH]3)c(CCCCCCl)c3nc(c(CCCCCCl)c4ccc1[nH]4)C=C3)C=C2
GI50 (786-0): > 100 µM (inactive)
GI50 (A498): > 100 µM (inactive)
GI50 (A549): > 100 µM (inactive)
GI50 (ACHN): > 100 µM (inactive)
GI50 (BT-549): > 100 µM (inactive)
GI50 (CAKI-1): > 100 µM (inactive)
GI50 (CCRF-CEM): > 100 µM (inactive)
GI50 (COLO 205): > 100 µM (inactive)
GI50 (DU-145): 1 µM (active)
GI50 (EKVX): > 100 µM (inactive)
GI50 (HCC 2998): > 100 µM (inactive)
GI50 (HCT-116): > 100 µM (inactive)
GI50 (HCT-15): > 100 µM
GI50 (HL-60): > 100 µM (inactive)
GI50 (HOP-62): > 100 µM (inactive)
GI50 (HOP-92): > 100 µM (inactive)
GI50 (HT-29): > 100 µM (inactive)
GI50 (Hs-578T): > 100 µM (inactive)
GI50 (IGROV-1): > 100 µM (inactive)
GI50 (K562): > 100 µM (inactive)
GI50 (KM12): > 100 µM (inactive)
GI50 (LOX IMVI): > 100 µM (inactive)
GI50 (M14): > 100 µM (inactive)
GI50 (MCF7): > 100 µM (inactive)
GI50 (MDA-MB-231): > 100 µM (inactive)
GI50 (MDA-MB-435): > 100 µM (inactive)
GI50 (MDA-N): > 100 µM (inactive)
GI50 (MOLT-4): > 100 µM (inactive)
GI50 (Malme-3M): > 100 µM (inactive)
GI50 (NCI-H226): > 100 µM (inactive)
GI50 (NCI-H23): > 100 µM (inactive)
GI50 (NCI-H460): > 100 µM (inactive)
GI50 (NCI-H522): > 100 µM (inactive)
GI50 (NCI/ADR-RES): > 100 µM (inactive)
GI50 (OVCAR-3): > 100 µM (inactive)
GI50 (OVCAR-4): > 100 µM (inactive)
GI50 (OVCAR-5): > 100 µM (inactive)
GI50 (OVCAR-8): > 100 µM (inactive)
GI50 (PC-3): > 100 µM (inactive)
GI50 (RPMI-8226): > 100 µM (inactive)
GI50 (RXF 393): > 100 µM (inactive)
GI50 (SF-268): > 100 µM (inactive)
GI50 (SF-295): > 100 µM (inactive)
GI50 (SF-539): > 100 µM (inactive)
GI50 (SK-MEL-28): > 100 µM (inactive)
GI50 (SK-MEL-2): > 100 µM (inactive)
GI50 (SK-MEL-5): > 100 µM (inactive)
GI50 (SK-OV-3): > 100 µM (inactive)
GI50 (SN12C): > 100 µM (inactive)
GI50 (SNB-19): > 100 µM (inactive)
GI50 (SNB-75): 83.4 µM (inactive)
GI50 (SR): > 100 µM (inactive)
GI50 (SW-620): > 100 µM (inactive)
GI50 (T47D): > 100 µM (inactive)
GI50 (TK-10): > 100 µM (inactive)
GI50 (U-251): > 100 µM (inactive)
GI50 (UACC-257): > 100 µM (inactive)
GI50 (UACC-62): > 100 µM (inactive)
GI50 (UO-31): > 100 µM (inactive)

C/C(=N\Nc1ncnc2ccccc12)c1ccccn1
GI50 (786-0): < 0.0236 µM (active)
GI50 (A498): 0.183 µM (active)
GI50 (A549): 0.0316 µM (active)
GI50 (ACHN): 0.0169 µM (active)
GI50 (BT-549): 0.587 µM (active)
GI50 (CAKI-1): < 0.01 µM (active)
GI50 (CCRF-CEM): < 0.01 µM (active)
GI50 (COLO 205): < 0.01 µM (active)
GI50 (DU-145): 0.0718 µM (active)
GI50 (EKVX): < 0.0169 µM (active)
GI50 (HCC 2998): 0.105 µM (active)
GI50 (HCT-116): < 0.011 µM (active)
GI50 (HCT-15): < 0.0197 µM
GI50 (HL-60): < 0.01 µM (active)
GI50 (HOP-62): 0.0355 µM (active)
GI50 (HOP-92): 0.25 µM (active)
GI50 (HT-29): 0.0182 µM (active)
GI50 (Hs-578T): 0.2 µM (active)
GI50 (IGROV-1): < 0.0162 µM (active)
GI50 (K562): < 0.0106 µM (active)
GI50 (KM12): 0.0561 µM (active)
GI50 (LOX IMVI): 0.0194 µM (active)
GI50 (M14): 0.02 µM (active)
GI50 (MCF7): 0.0138 µM (active)
GI50 (MDA-MB-231): < 0.0196 µM (active)
GI50 (MDA-MB-435): 0.195 µM (active)
GI50 (MDA-N): 0.384 µM (active)
GI50 (MOLT-4): < 0.0136 µM (active)
GI50 (Malme-3M): < 0.0315 µM (active)
GI50 (NCI-H226): 0.0276 µM (active)
GI50 (NCI-H23): < 0.0244 µM (active)
GI50 (NCI-H460): 0.0294 µM (active)
GI50 (NCI-H522): < 0.01 µM (active)
GI50 (NCI/ADR-RES): < 0.0168 µM (active)
GI50 (OVCAR-3): < 0.0166 µM (active)
GI50 (OVCAR-4): 10.7 µM (inactive)
GI50 (OVCAR-5): 1.61 µM (inactive)
GI50 (OVCAR-8): < 0.01 µM (active)
GI50 (PC-3): < 0.0226 µM (active)
GI50 (RPMI-8226): 0.019 µM (active)
GI50 (RXF 393): 0.0371 µM (active)
GI50 (SF-268): < 0.0177 µM (active)
GI50 (SF-295): 0.0803 µM (active)
GI50 (SF-539): 0.0279 µM (active)
GI50 (SK-MEL-28): 0.369 µM (active)
GI50 (SK-MEL-2): 2.79 µM (inactive)
GI50 (SK-MEL-5): 0.0237 µM (active)
GI50 (SK-OV-3): 0.0299 µM (active)
GI50 (SN12C): 0.026 µM (active)
GI50 (SNB-19): 0.802 µM (active)
GI50 (SNB-75): 1.81 µM (inactive)
GI50 (SR): 0.0317 µM (active)
GI50 (SW-620): < 0.0267 µM (active)
GI50 (T47D): < 0.0185 µM (active)
GI50 (TK-10): 0.157 µM (active)
GI50 (U-251): < 0.0214 µM (active)
GI50 (UACC-257): < 0.0161 µM (active)
GI50 (UACC-62): 0.0948 µM (active)
GI50 (UO-31): 0.0516 µM (active)

O=C1Nc2ccc([N+](=O)[O-])cc2/C1=N/NC(=S)Nc1ccc([N+](=O)[O-])cc1
GI50 (786-0): 16.9 µM (inactive)
GI50 (A498): 18.2 µM (inactive)
GI50 (A549): 21.1 µM (inactive)
GI50 (ACHN): 24.8 µM (inactive)
GI50 (BT-549): 16.4 µM (inactive)
GI50 (CAKI-1): 21.6 µM (inactive)
GI50 (CCRF-CEM): 18.7 µM (inactive)
GI50 (COLO 205): 36 µM (inactive)
GI50 (DU-145): 21.5 µM (inactive)
GI50 (EKVX): 26.2 µM (inactive)
GI50 (HCC 2998): 20.9 µM (inactive)
GI50 (HCT-116): 20.4 µM (inactive)
GI50 (HCT-15): 19 µM
GI50 (HL-60): 26.7 µM (inactive)
GI50 (HOP-62): 22.6 µM (inactive)
GI50 (HOP-92): 18.5 µM (inactive)
GI50 (HT-29): 26.7 µM (inactive)
GI50 (Hs-578T): 51.9 µM (inactive)
GI50 (IGROV-1): 17.7 µM (inactive)
GI50 (K562): 34.2 µM (inactive)
GI50 (KM12): 18.6 µM (inactive)
GI50 (LOX IMVI): 22.2 µM (inactive)
GI50 (M14): 19.6 µM (inactive)
GI50 (MCF7): 25.4 µM (inactive)
GI50 (MDA-MB-231): 24.7 µM (inactive)
GI50 (MDA-MB-435): 18.4 µM (inactive)
GI50 (MDA-N): 17.9 µM (inactive)
GI50 (MOLT-4): 35.9 µM (inactive)
GI50 (Malme-3M): 33.3 µM (inactive)
GI50 (NCI-H226): 27.9 µM (inactive)
GI50 (NCI-H23): 19.9 µM (inactive)
GI50 (NCI-H460): 19.7 µM (inactive)
GI50 (NCI-H522): 30.9 µM (inactive)
GI50 (NCI/ADR-RES): 20.5 µM (inactive)
GI50 (OVCAR-3): 22.9 µM (inactive)
GI50 (OVCAR-4): 19.3 µM (inactive)
GI50 (OVCAR-5): 28.7 µM (inactive)
GI50 (OVCAR-8): 31.5 µM (inactive)
GI50 (PC-3): 24.2 µM (inactive)
GI50 (RPMI-8226): 34.9 µM (inactive)
GI50 (RXF 393): 17.5 µM (inactive)
GI50 (SF-268): 32.6 µM (inactive)
GI50 (SF-295): 19.8 µM (inactive)
GI50 (SF-539): 29.4 µM (inactive)
GI50 (SK-MEL-28): 26.5 µM (inactive)
GI50 (SK-MEL-2): 18.5 µM (inactive)
GI50 (SK-MEL-5): 15.8 µM (inactive)
GI50 (SK-OV-3): 22.4 µM (inactive)
GI50 (SN12C): 32.3 µM (inactive)
GI50 (SNB-19): 26.2 µM (inactive)
GI50 (SNB-75): 21.8 µM (inactive)
GI50 (SR): 30.2 µM (inactive)
GI50 (SW-620): 39.2 µM (inactive)
GI50 (T47D): 19.1 µM (inactive)
GI50 (TK-10): 24.7 µM (inactive)
GI50 (U-251): 23.7 µM (inactive)
GI50 (UACC-257): 20.8 µM (inactive)
GI50 (UACC-62): 21.1 µM (inactive)
GI50 (UO-31): 18 µM (inactive)
